Measured values published in PubChem BioAssay (NCI).
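All cell lines were grown in 96-well plates and treated with compound for 48 hours. GI50 is the concentration that inhibits growth by half. The concentration for full growth arrest is given as TGI.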

Columns and labels:
Experiment in all cases: NCI anticancer screen, dose series, 48 h
SK-MEL-2 melanoma = test system: SK-MEL-2 melanoma
SN12C renal = test system: SN12C renal
BT-549 breast = test system: BT-549 breast
NCI-H460 lung = test system: NCI-H460 lung
PC-3 prostate = test system: PC-3 prostate
SK-MEL-5 melanoma = test system: SK-MEL-5 melanoma
A549 NSCLC = test system: A549 NSCLC
UACC-257 melanoma = test system: UACC-257 melanoma
CAKI-1 renal = test system: CAKI-1 renal
SW-620 colon = test system: SW-620 colon
RXF 393 renal = test system: RXF 393 renal
SNB-75 CNS = test system: SNB-75 CNS
MALME-3M melanoma = test system: MALME-3M melanoma
CCRF-CEM leukemia = test system: CCRF-CEM leukemia
NCI-H23 lung = test system: NCI-H23 lung
KM12 colon = test system: KM12 colon
RPMI-8226 leukemia = test system: RPMI-8226 leukemia
SNB-19 CNS = test system: SNB-19 CNS
HCT-116 colon = test system: HCT-116 colon
SK-OV-3 ovarian = test system: SK-OV-3 ovarian
786-0 renal = test system: 786-0 renal
LOX IMVI melanoma = test system: LOX IMVI melanoma
SF-295 CNS = test system: SF-295 CNS
SR leukemia = test system: SR leukemia
ACHN renal = test system: ACHN renal
IGROV1 ovarian = test system: IGROV1 ovarian
T-47D breast = test system: T-47D breast
HCC-2998 colon = test system: HCC-2998 colon
U251 CNS = test system: U251 CNS

For `CCCCCCCCCCCCCCCc1cc(O)ccc1N`, the GI50 (SK-MEL-2 melanoma) was > 100 µM, the TGI (SK-MEL-2 melanoma) was > 100 µM and the GI50 (SN12C renal) was > 20.1 µM. The TGI (SN12C renal) was > 100 µM, the GI50 (BT-549 breast) was 0.305 µM and the TGI (BT-549 breast) was > 74.7 µM. For the same molecule, the GI50 (NCI-H460 lung) was > 100 µM, the TGI (NCI-H460 lung) was > 100 µM and the GI50 (PC-3 prostate) was 0.463 µM. The TGI (PC-3 prostate) was 10.6 µM, the GI50 (SK-MEL-5 melanoma) was > 100 µM and the TGI (SK-MEL-5 melanoma) was > 100 µM. For the same molecule, the GI50 (A549 NSCLC) was > 100 µM, the TGI (A549 NSCLC) was > 100 µM and the GI50 (UACC-257 melanoma) was 11.3 µM. The TGI (UACC-257 melanoma) was > 80.1 µM, the GI50 (CAKI-1 renal) was 1.72 µM and the TGI (CAKI-1 renal) was 7.06 µM. For the same molecule, the GI50 (SW-620 colon) was > 100 µM, the TGI (SW-620 colon) was > 100 µM and the GI50 (RXF 393 renal) was 18.5 µM. For the same molecule, the TGI (RXF 393 renal) was > 84.6 µM, the GI50 (SNB-75 CNS) was 4.76 µM and the TGI (SNB-75 CNS) was 68.9 µM. For the same molecule, the GI50 (MALME-3M melanoma) was > 62.1 µM, the TGI (MALME-3M melanoma) was > 100 µM and the GI50 (CCRF-CEM leukemia) was 0.0518 µM. For the same molecule, the GI50 (NCI-H23 lung) was > 96.2 µM, the TGI (NCI-H23 lung) was > 100 µM and the GI50 (KM12 colon) was 7.43 µM. For the same molecule, the TGI (KM12 colon) was > 100 µM, the GI50 (RPMI-8226 leukemia) was 0.18 µM and the TGI (RPMI-8226 leukemia) was 18.8 µM. The GI50 (SNB-19 CNS) was > 100 µM, the TGI (SNB-19 CNS) was > 100 µM and the GI50 (HCT-116 colon) was > 100 µM. The TGI (HCT-116 colon) was > 100 µM, the GI50 (SK-OV-3 ovarian) was 31.7 µM and the TGI (SK-OV-3 ovarian) was > 76.4 µM. It also gave a GI50 (786-0 renal) of 2.77 µM, a TGI (786-0 renal) of 37.2 µM and a GI50 (LOX IMVI melanoma) of 1.39 µM. For the same molecule, the TGI (LOX IMVI melanoma) was 9.41 µM, the GI50 (SF-295 CNS) was 3.46 µM and the TGI (SF-295 CNS) was > 100 µM. The GI50 (SR leukemia) was 2.18 µM, the TGI (SR leukemia) was 23.4 µM and the GI50 (ACHN renal) was > 100 µM. For the same molecule, the TGI (ACHN renal) was > 100 µM, the GI50 (IGROV1 ovarian) was 0.416 µM and the TGI (IGROV1 ovarian) was 6.61 µM. For the same molecule, the GI50 (T-47D breast) was 0.132 µM, the TGI (T-47D breast) was 1.76 µM and the GI50 (HCC-2998 colon) was > 100 µM. The TGI (HCC-2998 colon) was > 100 µM, the GI50 (U251 CNS) was > 80.2 µM and the TGI (U251 CNS) was > 100 µM.
